Legend:
[1] = system: H460 parental and resistant cells; experiment: Annexin-V apoptosis assay in H460 parental and resistant cells; format: cell-based, human; settings: BFC1108 20 μM, 48 hours
Experimental: FIG. 25E is the results of Annexin-V apoptosis assay in H460 cells treated for 48 hours with vehicle or paclitaxel 10 nM, quantification right panel.
Cells were seeded into 6 well tissue culture plates to give approximately 50% confluence and allowed to attach overnight. The cells were then treated for a period of time indicated in figure legend with the appropriate compound at various concentrations (see figure legends). An Annexin V-conjugate PerCP-eFluor 710 apoptosis detection kit was used as described by the manufacturer's protocol (eBioscience 88-8008). Harvesting of cells included collection of floating and attached cells following trypsinization. Data were acquired using an CytoFLEX S flow cytometer (Beckman Coulter, Brea, Calif.) and 10,000 events on the PC5.5 channel were analyzed using CytExpert software (Beckman Coulter). For Nur77 GFP tagged annexin V analysis, GFP positive population were selected and then Annexin V+population was determined. For each sample, 10,000 GFP+ events were collected. Annexin V positive cell population was considered to be the apoptotic population, and the percent of annexin V positive cell population was used to determine the extent of apoptosis.

[2] = system: MEF Bcl-2−/− and WT MEF cells; experiment: Colony forming ability of MEFs; format: cell-based, mouse; settings: 10 μM, 10% FBS, 48 h
[3] = humans; cited from earlier work
[4] = system: MDA-MB-231 cells with or without Bcl-2 expression vector; experiment: Transwell matrigel invasion assay; format: cell-based, human; settings: 10 μM, 16 h
Experimental: FIG. 10F is MDA-MB231 cells with or without Bcl-2 expression vector were treated with 10 μM MTX or vehicle in a matrigel invasion chamber for 16 h and the membrane was then fixed, stained and number of cells invaded counted.
Invasion assay was performed using BD transwell invasion assay kit. MDA-MB-231 cells were treated for 16 h at 10 μM concentration and membrane was stained with prolong anti-fade DAPI stain and number of cells invaded were counted under a fluorescent microscope.

Structure (SMILES) | Induction of apoptosis (Annexin V), H460 resistant vs parental [1] | Colony forming ability of MEF Bcl-2−/− cells [2] | Colony forming ability of WT MEFs [2] | half-life [3] [h] | Invasive potential of Bcl-2 over-expressing cells vs vector controls [4]
CCOc1ccccc1NC(=O)c1cc(Cl)ccc1NC(=O)c1ccc(OC)cc1 [BFC1108, 5-chloro-N-(2-ethoxyphenyl)-2-[(4-methoxybenzoyl)amino]-benzamide] | induced apoptosis in the resistant line preferentially | absent | fewer colonies |  | 
CN(Cc1cnc2nc(N)nc(N)c2n1)c1ccc(C(=O)N[C@@H](CCC(=O)O)C(=O)O)cc1 [MTX, (2S)-2-[[4-[(2,4 diaminopteridin-6-yl)methylmethylamino]benzoyl]amino] pentanedioc acid] |  |  |  | 7 to 10 | inhibited the invasive potential of Bcl-2 over-expressing cells
